Source: the kinase profiling compilation of Christmann-Franck et al. (2016)

Columns and labels:
Assay in all cases: radiometric filter-binding kinase assay
CSK (human) = CSK (human) (UniProt P41240)
DYRK3 (human) = DYRK3 (human) (UniProt O43781)
LCK (mouse) = settings: accession and sequence are those of the human protein
TAOK1 (human) = TAOK1 (human) (UniProt Q7L7X3)
PAK4 (human) = PAK4 (human) (UniProt O96013)
MST4 (human) = MST4 (human) (UniProt Q9P289)
[1] = tested on: AKT1 (human), P31749 [S473D]
Sequence of AKT1 (human), P31749 [S473D] (P31749 whole entry S473D, looked up): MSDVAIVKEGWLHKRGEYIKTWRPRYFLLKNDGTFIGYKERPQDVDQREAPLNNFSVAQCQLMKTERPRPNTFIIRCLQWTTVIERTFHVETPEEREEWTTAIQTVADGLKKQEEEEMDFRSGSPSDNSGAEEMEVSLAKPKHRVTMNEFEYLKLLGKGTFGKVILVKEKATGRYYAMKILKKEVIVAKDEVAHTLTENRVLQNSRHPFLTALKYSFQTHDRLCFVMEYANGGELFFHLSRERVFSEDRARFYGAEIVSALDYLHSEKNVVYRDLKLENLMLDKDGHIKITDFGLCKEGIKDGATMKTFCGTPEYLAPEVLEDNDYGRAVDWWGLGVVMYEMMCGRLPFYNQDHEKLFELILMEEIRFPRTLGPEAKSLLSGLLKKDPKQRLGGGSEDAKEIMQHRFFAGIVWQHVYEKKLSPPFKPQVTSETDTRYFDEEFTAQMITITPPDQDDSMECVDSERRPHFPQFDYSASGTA

EPHB2 (human) = EPHB2 (human) (UniProt P29323)
EPHA4 (human) = EPHA4 (human) (UniProt P54764)
MARK2 (human) = MARK2 (human) (UniProt Q7KZI7)
PAK6 (human) = PAK6 (human) (UniProt Q9NQU5)
MINK1 (human) = MINK1 (human) (UniProt Q8N4C8)
MAP2K1 (human) = MAP2K1 (human) (UniProt Q02750)
Sequence of MAP2K1 (human) (Q02750 whole entry, looked up): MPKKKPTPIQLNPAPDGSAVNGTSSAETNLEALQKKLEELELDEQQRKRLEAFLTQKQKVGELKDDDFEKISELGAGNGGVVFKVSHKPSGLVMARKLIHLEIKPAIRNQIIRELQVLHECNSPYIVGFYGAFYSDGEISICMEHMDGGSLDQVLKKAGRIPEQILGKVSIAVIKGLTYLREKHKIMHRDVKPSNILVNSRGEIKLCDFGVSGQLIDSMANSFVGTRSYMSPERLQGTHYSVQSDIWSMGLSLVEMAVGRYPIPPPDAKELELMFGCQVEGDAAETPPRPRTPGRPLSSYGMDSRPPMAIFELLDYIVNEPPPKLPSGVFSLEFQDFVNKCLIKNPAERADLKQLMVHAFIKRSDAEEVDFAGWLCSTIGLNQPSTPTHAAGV

MAPK10 (human) = MAPK10 (human) (UniProt P53779)
TBK1 (human) = TBK1 (human) (UniProt Q9UHD2)
EPHB3 (human) = EPHB3 (human) (UniProt P54753); settings: compound 50.0 µM
PKN2 (human) = PKN2 (human) (UniProt Q16513)
ROCK2 (rat) = settings: accession and sequence are those of the human protein
RPS6KA3 KD1 KD2 (human) = RPS6KA3 KD1 KD2 (human) (UniProt P51812)
Sequence of RPS6KA3 KD1 KD2 (human) (P51812 whole entry, looked up): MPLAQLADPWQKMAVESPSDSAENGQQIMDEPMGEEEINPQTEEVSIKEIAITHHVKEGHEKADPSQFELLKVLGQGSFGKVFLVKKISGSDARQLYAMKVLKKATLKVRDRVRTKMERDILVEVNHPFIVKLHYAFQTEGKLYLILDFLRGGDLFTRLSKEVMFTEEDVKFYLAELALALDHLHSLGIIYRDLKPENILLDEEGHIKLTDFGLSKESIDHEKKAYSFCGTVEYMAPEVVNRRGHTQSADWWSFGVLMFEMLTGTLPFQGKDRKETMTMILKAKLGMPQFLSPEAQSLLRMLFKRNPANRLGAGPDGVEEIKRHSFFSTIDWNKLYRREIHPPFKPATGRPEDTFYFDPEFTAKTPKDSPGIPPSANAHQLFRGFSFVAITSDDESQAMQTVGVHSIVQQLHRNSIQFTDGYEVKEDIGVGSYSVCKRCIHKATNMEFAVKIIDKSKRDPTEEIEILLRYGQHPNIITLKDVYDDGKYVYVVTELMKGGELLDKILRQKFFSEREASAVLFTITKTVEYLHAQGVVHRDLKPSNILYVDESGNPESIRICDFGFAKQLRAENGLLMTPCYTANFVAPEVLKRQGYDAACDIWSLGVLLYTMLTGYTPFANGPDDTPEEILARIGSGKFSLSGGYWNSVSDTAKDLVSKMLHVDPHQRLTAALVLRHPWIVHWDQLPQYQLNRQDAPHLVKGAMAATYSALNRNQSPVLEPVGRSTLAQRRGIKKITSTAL

EPHA2 (human) = EPHA2 (human) (UniProt P29317)
MAP3K7 TAB1 (human) = MAP3K7 TAB1 (human) (UniProt Q15750+O43318); settings: compound 10.0 µM
[2] = tested on: PAK2 (human), Q13177 [T402E]
TTK (human) = TTK (human) (UniProt P33981)
MAP3K11 (human) = MAP3K11 (human) (UniProt Q16584)
CDK2 CCNA2 (human) = CDK2 CCNA2 (human) (UniProt P20248+P24941)
MAPK8 (human) = MAPK8 (human) (UniProt P45983)
GCK (human) = GCK (human) (UniProt Q12851)
NUAK1 (human) = NUAK1 (human) (UniProt O60285)
CaMK1 (human) = CaMK1 (human) (UniProt Q14012)
Sequence of CaMK1 (human) (Q14012 whole entry, looked up): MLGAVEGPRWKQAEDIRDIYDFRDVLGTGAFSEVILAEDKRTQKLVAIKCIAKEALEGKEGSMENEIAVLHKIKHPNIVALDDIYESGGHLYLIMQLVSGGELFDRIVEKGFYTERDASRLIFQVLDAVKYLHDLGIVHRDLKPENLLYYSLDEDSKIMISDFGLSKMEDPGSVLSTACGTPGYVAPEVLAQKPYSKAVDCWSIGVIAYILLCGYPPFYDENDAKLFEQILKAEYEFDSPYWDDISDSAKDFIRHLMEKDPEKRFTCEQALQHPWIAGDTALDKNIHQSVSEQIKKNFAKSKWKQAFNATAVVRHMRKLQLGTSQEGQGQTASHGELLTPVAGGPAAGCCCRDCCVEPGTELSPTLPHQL

MYLK (human) = MYLK (human) (UniProt Q15746)
IKBKB (human) = IKBKB (human) (UniProt O14920)
Sequence of IKBKB (human) (O14920 whole entry, looked up): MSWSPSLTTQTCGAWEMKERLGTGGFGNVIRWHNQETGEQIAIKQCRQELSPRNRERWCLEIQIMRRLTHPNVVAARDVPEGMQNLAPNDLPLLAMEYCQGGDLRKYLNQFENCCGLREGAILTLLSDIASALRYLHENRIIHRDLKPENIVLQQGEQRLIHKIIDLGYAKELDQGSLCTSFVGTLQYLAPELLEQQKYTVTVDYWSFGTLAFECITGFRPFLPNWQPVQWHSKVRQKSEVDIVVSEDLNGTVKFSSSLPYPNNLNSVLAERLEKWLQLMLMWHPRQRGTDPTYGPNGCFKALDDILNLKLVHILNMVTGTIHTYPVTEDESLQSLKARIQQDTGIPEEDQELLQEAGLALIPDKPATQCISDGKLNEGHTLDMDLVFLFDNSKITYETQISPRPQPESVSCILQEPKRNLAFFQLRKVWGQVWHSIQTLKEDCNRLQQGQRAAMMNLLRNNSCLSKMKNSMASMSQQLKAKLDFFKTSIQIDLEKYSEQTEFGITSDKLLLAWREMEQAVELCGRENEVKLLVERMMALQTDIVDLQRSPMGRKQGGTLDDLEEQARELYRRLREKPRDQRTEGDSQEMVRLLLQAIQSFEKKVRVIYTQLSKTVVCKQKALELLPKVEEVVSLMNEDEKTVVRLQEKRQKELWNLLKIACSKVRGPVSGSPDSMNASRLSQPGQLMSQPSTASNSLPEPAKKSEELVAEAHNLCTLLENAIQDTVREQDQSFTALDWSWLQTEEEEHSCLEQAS

CHEK1 (human) = CHEK1 (human) (UniProt O14757)
Sequence of CHEK1 (human) (O14757 whole entry, looked up): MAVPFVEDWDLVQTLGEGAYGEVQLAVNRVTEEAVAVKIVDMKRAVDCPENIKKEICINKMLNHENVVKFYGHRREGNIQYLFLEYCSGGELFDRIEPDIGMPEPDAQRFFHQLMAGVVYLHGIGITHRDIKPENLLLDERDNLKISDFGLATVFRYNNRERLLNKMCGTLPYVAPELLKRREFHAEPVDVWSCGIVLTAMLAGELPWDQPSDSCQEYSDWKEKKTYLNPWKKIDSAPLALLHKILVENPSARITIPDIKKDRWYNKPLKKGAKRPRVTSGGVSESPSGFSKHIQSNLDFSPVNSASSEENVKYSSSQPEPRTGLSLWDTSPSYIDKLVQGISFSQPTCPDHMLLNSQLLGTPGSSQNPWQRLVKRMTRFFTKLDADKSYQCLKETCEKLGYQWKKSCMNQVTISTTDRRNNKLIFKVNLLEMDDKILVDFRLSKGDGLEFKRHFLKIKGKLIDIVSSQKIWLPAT

AURKB (human) = AURKB (human) (UniProt Q96GD4)
Sequence of AURKB (human) (Q96GD4 whole entry, looked up): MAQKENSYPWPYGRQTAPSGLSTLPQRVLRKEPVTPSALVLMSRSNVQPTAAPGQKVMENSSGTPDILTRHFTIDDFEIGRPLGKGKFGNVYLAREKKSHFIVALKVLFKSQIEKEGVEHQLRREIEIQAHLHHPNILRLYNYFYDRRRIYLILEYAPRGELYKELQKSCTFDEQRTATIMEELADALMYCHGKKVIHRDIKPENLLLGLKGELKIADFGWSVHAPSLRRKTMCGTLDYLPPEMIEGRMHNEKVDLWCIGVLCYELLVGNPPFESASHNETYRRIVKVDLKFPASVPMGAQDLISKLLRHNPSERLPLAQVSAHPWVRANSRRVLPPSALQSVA

SRC (human) = SRC (human) (UniProt P12931)
Sequence of SRC (human) (P12931 whole entry, looked up): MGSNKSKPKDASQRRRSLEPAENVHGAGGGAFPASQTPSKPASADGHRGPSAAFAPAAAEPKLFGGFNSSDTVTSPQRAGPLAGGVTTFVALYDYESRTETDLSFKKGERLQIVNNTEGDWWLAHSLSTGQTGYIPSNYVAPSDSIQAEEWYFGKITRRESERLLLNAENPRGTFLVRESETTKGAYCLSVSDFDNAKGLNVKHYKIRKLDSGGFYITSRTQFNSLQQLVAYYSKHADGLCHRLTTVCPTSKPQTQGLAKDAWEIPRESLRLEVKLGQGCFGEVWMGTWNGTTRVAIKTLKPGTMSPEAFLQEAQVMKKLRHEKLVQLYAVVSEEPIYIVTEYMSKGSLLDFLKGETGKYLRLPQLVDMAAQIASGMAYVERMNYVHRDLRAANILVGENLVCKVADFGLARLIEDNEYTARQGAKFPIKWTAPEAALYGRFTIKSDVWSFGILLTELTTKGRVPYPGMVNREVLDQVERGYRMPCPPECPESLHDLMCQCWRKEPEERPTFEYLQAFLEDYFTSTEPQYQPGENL

CHEK2 (human) = CHEK2 (human) (UniProt O96017)
Sequence of CHEK2 (human) (O96017 whole entry, looked up): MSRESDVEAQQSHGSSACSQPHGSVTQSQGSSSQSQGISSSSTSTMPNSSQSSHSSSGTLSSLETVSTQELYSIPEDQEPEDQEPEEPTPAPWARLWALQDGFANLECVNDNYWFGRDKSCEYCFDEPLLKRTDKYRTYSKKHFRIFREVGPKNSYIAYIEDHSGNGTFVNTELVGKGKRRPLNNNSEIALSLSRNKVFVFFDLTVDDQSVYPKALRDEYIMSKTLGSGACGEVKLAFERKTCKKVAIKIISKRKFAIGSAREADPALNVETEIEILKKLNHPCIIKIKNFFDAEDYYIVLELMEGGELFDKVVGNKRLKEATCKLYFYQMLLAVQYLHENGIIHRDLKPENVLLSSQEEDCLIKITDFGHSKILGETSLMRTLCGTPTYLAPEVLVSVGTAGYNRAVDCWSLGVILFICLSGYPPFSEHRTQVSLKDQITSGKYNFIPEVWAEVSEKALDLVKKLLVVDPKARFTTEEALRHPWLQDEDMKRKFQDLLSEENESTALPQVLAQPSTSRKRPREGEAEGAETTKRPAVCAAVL

EPHB1 (human) = EPHB1 (human) (UniProt P54762)

- residual activity (CSK (human); compound 10.0 µM): 91%
- residual activity (CSK (human); compound 50.0 µM): 93%
- residual activity (DYRK3 (human); compound 10.0 µM): 87%
- residual activity (DYRK3 (human); compound 50.0 µM): 91%
- residual activity (LCK (mouse); compound 1.0 µM): 84%
- residual activity (LCK (mouse); compound 50.0 µM): 106%
- residual activity (TAOK1 (human); compound 10.0 µM): 93%
- residual activity (TAOK1 (human); compound 50.0 µM): 89%
- residual activity (PAK4 (human); compound 10.0 µM): 86%
- residual activity (PAK4 (human); compound 50.0 µM): 90%
- residual activity (MST4 (human); compound 10.0 µM): 102%
- residual activity (MST4 (human); compound 50.0 µM): 100%
- residual activity ([1]; compound 1.0 µM): 99%
- residual activity ([1]; compound 10.0 µM): 99%
- residual activity ([1]; compound 50.0 µM): 102%
- residual activity (EPHB2 (human); compound 10.0 µM): 106%
- residual activity (EPHB2 (human); compound 50.0 µM): 126%
- residual activity (EPHA4 (human); compound 10.0 µM): 117%
- residual activity (EPHA4 (human); compound 50.0 µM): 104%
- residual activity (MARK2 (human); compound 10.0 µM): 104%
- residual activity (MARK2 (human); compound 50.0 µM): 90%
- residual activity (PAK6 (human); compound 10.0 µM): 95%
- residual activity (PAK6 (human); compound 50.0 µM): 104%
- residual activity (MINK1 (human); compound 10.0 µM): 68%
- residual activity (MINK1 (human); compound 50.0 µM): 76%
- residual activity (MAP2K1 (human); compound 1.0 µM): 86%
- residual activity (MAP2K1 (human); compound 10.0 µM): 89%
- residual activity (MAP2K1 (human); compound 50.0 µM): 99%
- residual activity (MAPK10 (human); compound 1.0 µM): 88%
- residual activity (MAPK10 (human); compound 10.0 µM): 85%
- residual activity (MAPK10 (human); compound 50.0 µM): 89%
- residual activity (TBK1 (human); compound 10.0 µM): 99%
- residual activity (TBK1 (human); compound 50.0 µM): 97%
- residual activity (EPHB3 (human)): 96%
- residual activity (PKN2 (human); compound 1.0 µM): 83%
- residual activity (PKN2 (human); compound 10.0 µM): 106%
- residual activity (ROCK2 (rat); compound 1.0 µM): 84%
- residual activity (ROCK2 (rat); compound 10.0 µM): 97%
- residual activity (ROCK2 (rat); compound 50.0 µM): 89%
- residual activity (RPS6KA3 KD1 KD2 (human); compound 1.0 µM): 94%
- residual activity (RPS6KA3 KD1 KD2 (human); compound 10.0 µM): 94%
- residual activity (RPS6KA3 KD1 KD2 (human); compound 50.0 µM): 93%
- residual activity (EPHA2 (human); compound 10.0 µM): 95%
- residual activity (EPHA2 (human); compound 50.0 µM): 99%
- residual activity (MAP3K7 TAB1 (human)): 92%
- residual activity ([2]; compound 10.0 µM): 86%
- residual activity ([2]; compound 50.0 µM): 91%
- residual activity (TTK (human); compound 10.0 µM): 101%
- residual activity (TTK (human); compound 50.0 µM): 82%
- residual activity (MAP3K11 (human); compound 10.0 µM): 104%
- residual activity (MAP3K11 (human); compound 50.0 µM): 96%
- residual activity (CDK2 CCNA2 (human); compound 1.0 µM): 90%
- residual activity (CDK2 CCNA2 (human); compound 10.0 µM): 76%
- residual activity (CDK2 CCNA2 (human); compound 50.0 µM): 80%
- residual activity (MAPK8 (human); compound 1.0 µM): 86%
- residual activity (MAPK8 (human); compound 10.0 µM): 95%
- residual activity (MAPK8 (human); compound 50.0 µM): 92%
- residual activity (GCK (human); compound 10.0 µM): 87%
- residual activity (GCK (human); compound 50.0 µM): 98%
- residual activity (NUAK1 (human); compound 10.0 µM): 88%
- residual activity (NUAK1 (human); compound 50.0 µM): 86%
- residual activity (CaMK1 (human); compound 1.0 µM): 89%
- residual activity (CaMK1 (human); compound 10.0 µM): 107%
- residual activity (CaMK1 (human); compound 50.0 µM): 101%
- residual activity (MYLK (human); compound 1.0 µM): 98%
- residual activity (MYLK (human); compound 50.0 µM): 96%
- residual activity (IKBKB (human); compound 1.0 µM): 86%
- residual activity (IKBKB (human); compound 10.0 µM): 79%
- residual activity (IKBKB (human); compound 50.0 µM): 88%
- residual activity (CHEK1 (human); compound 1.0 µM): 82%
- residual activity (CHEK1 (human); compound 10.0 µM): 95%
- residual activity (CHEK1 (human); compound 50.0 µM): 95%
- residual activity (AURKB (human); compound 1.0 µM): 90%
- residual activity (AURKB (human); compound 10.0 µM): 99%
- residual activity (AURKB (human); compound 50.0 µM): 83%
- residual activity (SRC (human); compound 1.0 µM): 100%
- residual activity (SRC (human); compound 10.0 µM): 87%
- residual activity (SRC (human); compound 50.0 µM): 94%
- residual activity (CHEK2 (human); compound 1.0 µM): 83%
- residual activity (CHEK2 (human); compound 10.0 µM): 97%
- residual activity (CHEK2 (human); compound 50.0 µM): 95%
- residual activity (EPHB1 (human); compound 10.0 µM): 107%
- residual activity (EPHB1 (human); compound 50.0 µM): 106%
SMILES: CCCC(CCC)C(=O)O
